Test results from patent US20240132485A1, “HETEROCYCLIC CULLIN RING UBIQUITIN LIGASE COMPOUNDS AND USES THEREOF” (CEMM - FORSCHUNGSZENTRUM FÜR MOLEKULARE MEDIZIN GMBH, priority 2020, published 2024).

What was measured:
KBM7 cells (wild-type) = assay: KBM7 CTG EC50 assay (UBE2M wild-type); format: cell-based, human; details: for EC50: Homo sapiens, KBM-7, 72 h incubation, CellTiter-Glo, read-out: KBM7 CTG EC50 (UBE2M wild-type) Activity Class; for Ratio UBE2M WT to KO: ratio of anti-proliferative activity in KBM7 wild-type versus UBE2M knock-out cells (fold); for dependence of cytotoxicity on UBE2M, in words: KBM7 wild-type versus UBE2M mutant
Outline: (§1)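 Wild-type KBM7 cells, or KBM7 cells with a hypomorphic UBE2M mutation that impairs Cullin-RING ligase activity, were treated for 72 h with compounds in a 10-point, 1:4 titration (0 to 20 μM). Viability was read by CellTiter-Glo 2.0 luminescence.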

[1] = test system: KBM7 cells harboring a hypomorphic UBE2M mutation; assay: KBM7 CTG EC50 assay (UBE2M knock-out); format: cell-based; details: Homo sapiens, KBM-7; 72 h incubation, CellTiter-Glo; read-out: KBM7 CTG EC50 (UBE2M knock-out) Activity Class
Outline: as §1

[2] = target: T1, DDB1-CDK12/Cyclin K ternary complex (Homo sapiens, UniProt Q16531+Q9NYV4); assay: NanoBRET EC50 assay (HaloTag_CDK12 / NanoLuc_DDB1 in HEK293T); format: cell-based; details: for EC50 / NanoBRET EC50 Activity Class: 10-point titration from 20 μM, HEK293T; for EC50: read-out: NanoBRET EC50 Activity Class
T1 construct: expressed in transfected cells; host or cells: HEK293T wildtype cells, transient PEI transfection
Description: This assay measures the interaction/recruitment of CDK12/Cyclin K to DDB1, mechanistically validating the molecular glue pharmacology.
HEK293T wildtype cells are seeded 800 k cells/well (DMEM+10% FBS+1% PS) in a 6-well plate and allowed to attach for ˜7 hours followed by a transient transfection of 1.5 μg HaloTag_CDK12 Plasmid [Table 1] and 0.15 μg NanoLuc_DDB1 plasmid [Table 1] per well using PEI. Cells are incubated at 37° C., 5% CO2, harvested after 24 hours and resuspended in assay media (Opti-MEM Reduced serum media, no phenol red, 4% FBS, 1% PS). Cells are adjusted to 2.3×10^5 cells/ml and treated with HaloTag 618 Ligand at 100 nM or DMSO. 8000 cells are seeded per well in triplicates per compound in a white-walled 384-well plate, one negative control treated with DMSO instead of HaloTag 618 Ligand is seeded in triplicates and the 384-well plate is incubated at 37° C., 5% CO2 overnight. Compound stock solutions are prepared in Opti-MEM−/− (Opti-MEM I Reduced serum media, no phenol red) at 8× and used to treat the cells at a final concentration of 1× at 10 μM. Cells and compounds are incubated for 10 minutes at room temperature followed by addition of NanoBRET Nano-Glo substrate following manufacturer's protocols. The plate is shaken for 30 sec followed by immediate measurement of donor emission (NanoBRET Blue at 460 nm) and acceptor emission (BRET Deep Red at 647 nm) for 0.5 s.
The assay setup is identical to “NanoBRET fold change experimental setup”. Instead of treating cells in […] with 10 μM compound, a 10-point titration starting at 20 μM is performed with a dilution factor of 1:4, covering α range of 20000 nM-0.076 nM.

[3] = target: T1, DDB1-CDK12/Cyclin K ternary complex; assay: NanoBRET fold-change assay (HaloTag_CDK12 / NanoLuc_DDB1 in HEK293T); format: cell-based; details: 10 μM compound, 10 minutes
Outline: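 HEK293T cells transiently co-transfected with HaloTag_CDK12 and NanoLuc_DDB1, labelled overnight with 100 nM HaloTag 618 ligand (DMSO no-ligand control), then treated with compound at 10 μM final for 10 min at room temperature. BRET read as 460 nm donor and 647 nm acceptor emission after Nano-Glo substrate; reported as fold change.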

CCNK = assay: NanoLuc-CCNK degradation assay (HEK293T_Nluc_CCNK-tagged cells); format: cell-based; details: for NanoLuc-CCNK degradation DC50 Activity Class / DC50: 4 h incubation, HEK293T_Nluc_CCNK-tagged cells; for DC50: read-out: NanoLuc-CCNK degradation DC50 Activity Class
Outline: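 HEK293T cells with nanoluciferase knocked in at the N-terminus of endogenous CCNK (CRISPR) exposed to a 10-point titration (0 to 10 μM, 1:4) in Opti-MEM I + 4% FBS for 4 h. Nano-Glo substrate then added and luminescence read as a measure of Cyclin K abundance.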

T1 sequence (Q9NYV4 whole entry): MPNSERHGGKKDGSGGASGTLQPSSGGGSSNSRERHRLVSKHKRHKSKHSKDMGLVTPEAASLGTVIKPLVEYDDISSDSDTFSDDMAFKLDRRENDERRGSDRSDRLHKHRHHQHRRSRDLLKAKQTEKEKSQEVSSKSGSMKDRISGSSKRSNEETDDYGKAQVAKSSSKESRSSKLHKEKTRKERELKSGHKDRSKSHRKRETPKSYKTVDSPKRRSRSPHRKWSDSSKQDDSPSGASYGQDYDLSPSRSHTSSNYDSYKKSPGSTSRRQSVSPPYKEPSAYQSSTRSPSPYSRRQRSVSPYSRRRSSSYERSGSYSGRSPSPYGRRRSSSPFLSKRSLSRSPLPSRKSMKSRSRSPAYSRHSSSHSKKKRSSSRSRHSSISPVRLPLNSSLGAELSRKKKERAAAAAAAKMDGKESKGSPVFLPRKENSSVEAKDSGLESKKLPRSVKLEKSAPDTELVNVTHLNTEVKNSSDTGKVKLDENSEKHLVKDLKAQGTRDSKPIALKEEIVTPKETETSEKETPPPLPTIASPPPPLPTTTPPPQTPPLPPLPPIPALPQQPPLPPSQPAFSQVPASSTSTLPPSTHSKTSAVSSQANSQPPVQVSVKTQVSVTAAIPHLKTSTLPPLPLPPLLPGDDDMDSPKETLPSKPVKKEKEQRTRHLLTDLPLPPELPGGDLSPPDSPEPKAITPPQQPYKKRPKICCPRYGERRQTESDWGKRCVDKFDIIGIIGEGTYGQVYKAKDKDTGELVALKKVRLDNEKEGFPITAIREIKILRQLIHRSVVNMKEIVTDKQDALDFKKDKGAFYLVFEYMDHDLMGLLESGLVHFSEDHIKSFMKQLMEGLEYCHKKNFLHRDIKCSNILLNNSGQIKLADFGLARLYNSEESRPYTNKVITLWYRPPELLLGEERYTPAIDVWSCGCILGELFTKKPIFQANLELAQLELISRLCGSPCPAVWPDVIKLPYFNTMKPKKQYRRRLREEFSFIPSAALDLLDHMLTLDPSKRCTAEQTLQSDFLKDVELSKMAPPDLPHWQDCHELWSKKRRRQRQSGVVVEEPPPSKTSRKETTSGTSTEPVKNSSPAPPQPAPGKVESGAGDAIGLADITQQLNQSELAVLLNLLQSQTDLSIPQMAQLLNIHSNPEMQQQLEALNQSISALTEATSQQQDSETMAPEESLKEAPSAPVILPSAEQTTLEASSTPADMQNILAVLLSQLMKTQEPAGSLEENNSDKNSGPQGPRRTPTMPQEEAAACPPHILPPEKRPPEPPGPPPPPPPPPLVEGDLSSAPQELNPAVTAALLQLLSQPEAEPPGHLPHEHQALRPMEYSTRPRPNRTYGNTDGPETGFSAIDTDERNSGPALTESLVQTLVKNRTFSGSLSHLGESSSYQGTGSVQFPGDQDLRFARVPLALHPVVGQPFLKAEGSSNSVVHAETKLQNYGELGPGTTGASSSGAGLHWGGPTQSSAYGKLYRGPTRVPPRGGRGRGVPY
T1 sequence (Q16531 whole entry): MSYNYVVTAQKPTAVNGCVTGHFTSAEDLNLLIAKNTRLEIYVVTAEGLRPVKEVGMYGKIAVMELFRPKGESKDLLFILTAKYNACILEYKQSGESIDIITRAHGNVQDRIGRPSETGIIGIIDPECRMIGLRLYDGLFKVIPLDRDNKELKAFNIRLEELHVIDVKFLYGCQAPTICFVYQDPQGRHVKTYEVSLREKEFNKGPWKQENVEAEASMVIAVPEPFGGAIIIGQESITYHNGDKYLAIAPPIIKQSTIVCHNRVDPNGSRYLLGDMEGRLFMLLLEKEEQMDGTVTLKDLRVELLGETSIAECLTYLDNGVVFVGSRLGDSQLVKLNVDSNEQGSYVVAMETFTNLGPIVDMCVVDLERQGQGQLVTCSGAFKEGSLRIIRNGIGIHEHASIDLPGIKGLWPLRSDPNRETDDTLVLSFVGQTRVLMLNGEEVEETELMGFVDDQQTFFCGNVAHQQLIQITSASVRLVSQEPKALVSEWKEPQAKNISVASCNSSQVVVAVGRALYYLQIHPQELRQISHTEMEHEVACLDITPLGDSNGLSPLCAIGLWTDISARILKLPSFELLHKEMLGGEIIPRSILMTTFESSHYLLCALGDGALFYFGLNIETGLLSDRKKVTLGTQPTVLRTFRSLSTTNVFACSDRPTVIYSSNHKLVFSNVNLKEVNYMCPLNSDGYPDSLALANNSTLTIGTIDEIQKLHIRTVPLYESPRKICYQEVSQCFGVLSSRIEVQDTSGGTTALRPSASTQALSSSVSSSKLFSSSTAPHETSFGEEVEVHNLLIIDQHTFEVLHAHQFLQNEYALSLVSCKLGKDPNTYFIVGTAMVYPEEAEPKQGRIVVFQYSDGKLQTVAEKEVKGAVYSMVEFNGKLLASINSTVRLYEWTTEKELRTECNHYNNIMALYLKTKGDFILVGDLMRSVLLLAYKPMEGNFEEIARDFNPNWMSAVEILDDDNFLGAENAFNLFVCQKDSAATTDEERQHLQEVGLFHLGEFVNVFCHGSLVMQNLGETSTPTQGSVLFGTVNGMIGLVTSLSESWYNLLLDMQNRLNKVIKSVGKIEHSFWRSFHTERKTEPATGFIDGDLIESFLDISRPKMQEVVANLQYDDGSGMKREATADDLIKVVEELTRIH
T1 sequence (O75909 whole entry partner): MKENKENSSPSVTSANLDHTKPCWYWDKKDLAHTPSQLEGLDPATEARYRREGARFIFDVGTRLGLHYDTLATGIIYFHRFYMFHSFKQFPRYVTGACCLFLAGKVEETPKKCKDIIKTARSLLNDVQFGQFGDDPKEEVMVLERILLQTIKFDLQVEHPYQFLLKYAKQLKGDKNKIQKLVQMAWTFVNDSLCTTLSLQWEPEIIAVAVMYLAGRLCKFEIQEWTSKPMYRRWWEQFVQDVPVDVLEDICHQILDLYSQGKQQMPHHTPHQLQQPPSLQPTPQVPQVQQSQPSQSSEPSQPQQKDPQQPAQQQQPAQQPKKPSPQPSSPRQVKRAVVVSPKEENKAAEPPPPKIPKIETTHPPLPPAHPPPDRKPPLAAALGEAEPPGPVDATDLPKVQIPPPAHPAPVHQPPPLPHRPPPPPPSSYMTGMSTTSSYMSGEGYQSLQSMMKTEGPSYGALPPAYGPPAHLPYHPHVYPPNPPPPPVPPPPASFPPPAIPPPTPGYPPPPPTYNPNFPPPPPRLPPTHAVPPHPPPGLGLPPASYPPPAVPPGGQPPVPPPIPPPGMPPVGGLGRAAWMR

Row | Compound | EC50 [2] | NanoBRET fold-change Activity Class [3] | NanoLuc-CCNK degradation DC50 Activity Class (CCNK) | activity in NanoBRET assay (ternary complex formation), in words [2] | DC50 (CCNK) | NanoBRET EC50 Activity Class [2] | EC50 (KBM7 cells (wild-type)) | Ratio UBE2M WT to KO (KBM7 cells (wild-type)) | EC50 [1] | activity in KBM7 cytotoxicity assay, in words (KBM7 cells (wild-type)) | activity in NanoLuc CCNK degradation assay, in words (CCNK) | dependence of cytotoxicity on UBE2M, in words (KBM7 cells (wild-type))
1 | O=C(Cc1cn2cc(F)ccc2n1)Nc1ncc(C2CC2)s1 [Example 3-43, N-(5-cyclopropylthiazol-2-yl)-2-(6-fluoroimidazo[1,2-a]pyridin-2-yl)acetamide] | ≤ 250 nM | A (greater than 4-fold increase) |  | exceptional | ≤ 100 nM |  | ≤ 250 nM |  | ≤ 250 nM | extremely potent activity | exceptional | 
2 | Cc1ccc2c(CC(=O)Nc3cc(Br)[nH]n3)coc2c1C [Example 3-47, N-(5-bromo-1H-pyrazol-3-yl)-2-(6,7-dimethylbenzofuran-3-yl)acetamide] |  | A (greater than 4-fold increase) |  |  | ≤ 100 nM | B (0.50 μM≤EC50≤0.25 μM) | ≤ 250 nM | 15.7 | 500 to 1000 nM |  |  | 
3 | Cc1ccc(NC(=O)Cc2coc3c(C)c(C)ccc23)nc1 [Example 3-50, 2-(6,7-dimethylbenzofuran-3-yl)-N-(5-methylpyridin-2-yl)acetamide] | ≤ 250 nM | A (greater than 4-fold increase) | D (10 μM≤DC50<1.0 μM) |  |  |  | 250 to 500 nM | >10 | > 10000 nM |  |  | 
4 | O=C(Cc1cn2cc(Cl)ccc2n1)Nc1cc(C2CC2)[nH]n1 [Example 3-66, N-(5-cyclopropyl-1H-pyrazol-3-yl)-2-(6-chloroimidazo[1,2-a]pyridin-2-yl)acetamide] | ≤ 250 nM | A (greater than 4-fold increase) |  | particularly exceptional | ≤ 100 nM |  | ≤ 250 nM | 388.0 | ≤ 250 nM |  | particularly exceptional | very strong dependence
5 | Cc1ccc2c(CC(=O)Nc3ccc(C(C)C)cn3)coc2c1C [Example 3-51, 2-(6,7-dimethylbenzofuran-3-yl)-N-(5-isopropylpyridin-2-yl)acetamide] |  | B (3-4 fold increase) | D (10 μM≤DC50<1.0 μM) |  |  | C (1.0 μM≤EC50<0.50 μM) | 1000 to 10000 nM | >8 | > 10000 nM |  |  | 
6 | Cc1ccc2c(CC(=O)Nc3cc(C(C)C)[nH]n3)coc2c1C [Example 3-45, 2-(6,7-dimethylbenzofuran-3-yl)-N-(5-isopropyl-1H-pyrazol-3-yl)acetamide] |  | A (greater than 4-fold increase) |  |  | ≤ 100 nM | B (0.50 μM≤EC50≤0.25 μM) | ≤ 250 nM | 18.6 | ≤ 250 nM |  |  | extremely high dependence
7 | O=C(Cc1cn2cc(F)ccc2n1)Nc1cc(C(F)(F)F)[nH]n1 [Example 3-59, 2-(6-fluoroimidazo[1,2-a]pyridin-2-yl)-N-(5-(trifluoromethyl)-1H-pyrazol-3-yl)acetamide] | > 10000 nM | C (2-3 fold increase) |  |  | > 10000 nM |  | 250 to 500 nM | >10 | > 10000 nM |  |  | 
8 | Cc1cnc(NC(=O)Cc2coc3c(C)c(C)ccc23)s1 [Example 3-1, 2-(6,7-dimethylbenzofuran-3-yl)-N-(5-methylthiazol-2-yl)acetamide] | ≤ 250 nM | B (3-4 fold increase) | B (0.50 μM≤DC50<0.10 μM) |  |  |  | ≤ 250 nM | 25.3 | 500 to 1000 nM |  |  | 
9 | Cc1ccc2c(CC(=O)Nc3cc(C(F)(F)F)[nH]n3)coc2c1C [Example 3-48, 2-(6,7-dimethylbenzofuran-3-yl)-N-(5-(trifluoromethyl)-1H-pyrazol-3-yl)acetamide] |  | B (3-4 fold increase) | B (0.50 μM≤DC50<0.10 μM) |  |  | B (0.50 μM≤EC50≤0.25 μM) | ≤ 250 nM | 15.7 | 500 to 1000 nM |  |  | 
10 | Cc1ccc2c(CC(=O)Nc3ccc(Br)cn3)coc2c1C [Example 3-53, N-(5-bromopyridin-2-yl)-2-(6,7-dimethylbenzofuran-3-yl)acetamide] | > 10000 nM | B (3-4 fold increase) | B (0.50 μM≤DC50<0.10 μM) |  |  |  | ≤ 250 nM | 22.7 | 1000 to 10000 nM |  |  | 
11 | Cc1ccc2c(CC(=O)Nc3ccc(C4CC4)cn3)coc2c1C [Example 3-52, N-(5-cyclopropylpyridin-2-yl)-2-(6,7-dimethylbenzofuran-3-yl)acetamide] | ≤ 250 nM | A (greater than 4-fold increase) | B (0.50 μM≤DC50<0.10 μM) |  |  |  | ≤ 250 nM | 27.0 | 1000 to 10000 nM |  |  | 

The next lines start with results.

Row | EC50 [2] | NanoBRET fold-change Activity Class [3] | NanoLuc-CCNK degradation DC50 Activity Class (CCNK) | activity in NanoBRET assay (ternary complex formation), in words [2] | DC50 (CCNK) | NanoBRET EC50 Activity Class [2] | Compound | EC50 (KBM7 cells (wild-type)) | Ratio UBE2M WT to KO (KBM7 cells (wild-type)) | EC50 [1] | activity in KBM7 cytotoxicity assay, in words (KBM7 cells (wild-type)) | activity in NanoLuc CCNK degradation assay, in words (CCNK) | dependence of cytotoxicity on UBE2M, in words (KBM7 cells (wild-type))
12 | ≤ 250 nM | A (greater than 4-fold increase) | B (0.50 μM≤DC50<0.10 μM) |  |  |  | CC(C)c1cnc(NC(=O)Cc2cn3cc(F)ccc3n2)s1 [Example 3-4, 2-(6-fluoroimidazo[1,2-a]pyridin-2-yl)-N-(5-isopropylthiazol-2-yl)acetamide] | ≤ 250 nM | 82.6 | 1000 to 10000 nM |  |  | 
13 | > 10000 nM | B (3-4 fold increase) | B (0.50 μM≤DC50<0.10 μM) |  |  |  | O=C(CCn1cnc2ccccc2c1=O)Nc1ncc(C(F)(F)F)s1 [Example 3-63, 3-(4-oxoquinazolin-3(4H)-yl)-N-(5-(trifluoromethyl)thiazol-2-yl)propanamide] | ≤ 250 nM | 13.9 | 1000 to 10000 nM |  |  | 
14 |  | B (3-4 fold increase) |  |  | > 10000 nM | C (1.0 μM≤EC50<0.50 μM) | O=C(Cc1c[nH]c2ncccc12)Nc1ncc(C(F)(F)F)s1 [Example 3-38, 2-(1H-pyrrolo[2,3-b]pyridin-3-yl)-N-(5-(trifluoromethyl)thiazol-2-yl)acetamide] | 500 to 1000 nM | >10 | > 10000 nM |  |  | 
15 | ≤ 250 nM | A (greater than 4-fold increase) |  | exceptional activity | ≤ 100 nM |  | COc1cc(Br)cn2cc(CC(=O)Nc3ncc(C(F)(F)F)s3)nc12 [Example 3-9, 2-(6-bromo-8-methoxyimidazo[1,2-a]pyridin-2-yl)-N-(5-(trifluoromethyl)thiazol-2-yl)acetamide] | ≤ 250 nM | 2.0 | ≤ 250 nM | extremely potent activity | exceptional activity | 
16 | ≤ 250 nM | A (greater than 4-fold increase) |  | extremely high activity | ≤ 100 nM |  | O=C(Cc1ccc2ncccc2c1)Nc1ncc(C(F)(F)F)s1 [Example 3-14, 2-(quinolin-6-yl)-N-(5-(trifluoromethyl)thiazol-2-yl)acetamide] | ≤ 250 nM |  | ≤ 250 nM | extremely potent activity | extremely high activity | 
